The values below come from paper PMC6931124, “NPY1R-targeted peptide-mediated delivery of a dual PPARα/γ agonist to adipocytes enhances adipogenesis and prevents diabetes progression” (Molecular Metabolism, 2019).

One experiment concerns ob/ob mice. To be noted: free systemically administered tesa; ref [43]; cited from earlier work.
A further experiment concerns PPARγ. Description: PPAR reporter gene assay (luciferase). Type of experiment: cell-based. On the procedure: HEK293 cells stably expressing NPY1R C-terminally fused to eYFP were seeded into white 96-well plates, grown to 70–80% confluence, and transfected using Lipofectamine 2000 transfection reagent according to the manufacturer's protocol. For luciferase reporter gene assays, 250 ng reporter plasmid, positive control plasmid or negative control plasmid (Cignal PPAR Reporter (luc) Kit), 250 ng PPARγ expression vector, and 250 ng RXRα expression vector were applied in addition to 0.75 μl of Lipofectamine 2000 transfection reagent per well. For selectivity assays, HEK293 cells without stable NPY1R-eYFP transfection and HEK293 NPY1R-eYFP cells without PPARγ transfection were used. After 24 h of transfection, the cells were treated with tesa or peptides for an additional 24 h. […] Luciferase assays were performed using the Dual-Luciferase System Kit according to the manufacturer's instructions. The relative firefly luciferase activity was normalized by the corresponding Renilla luciferase activity, the luciferase activity of the cells transfected with the negative control plasmid, and the DMSO vehicle control. The assays were performed in at least three independent experiments.
Furthermore, plasmids coding for PPARγ and RXRα were transfected. Because PPARγ binds as a heterodimer with RXRα to PPRE-responsive elements, RXRα is needed for PPARγ activity.
Figure 5 Transcriptional activity of the PPAR reporter gene. […] The depicted values represent mean ± SEM from n ≥ 3 independent experiments. All measurements were normalized to the transcriptional activity of DMSO-treated cells expressing all factors (set to […]). Statistical significance was determined by one-way analysis of variance (ANOVA) followed by Dunnett's multiple comparison test, *≤0.05, **p ≤ 0.01, ***p ≤ 0.001.
(In general: Reporter assays use an easily measured gene product as a stand-in for the process of interest.)

For a further experiment, the system named is PPARγ mRNA in liver. Description: PPARγ mRNA expression in liver. To be noted: db/db mice, 2.5 μM/kg/day, 8 days; qRT-PCR relative to control animals. Type of experiment: in vivo. On the procedure:
The 3T3-L1 or SGBS cells were seeded into 6-well plates and differentiated as previously described. Tesa or peptides were added to the differentiation medium at a concentration of 100 μM on day 2, followed by 12 h or 24 h incubation. On day 4, the cells were washed two times with PBS, harvested by trypsinization, and stored at −70 °C until RNA isolation was performed. […] N ≥ 3 independent experiments with two replicates were performed. For the cell culture experiments, the data were analyzed according to the 2^−ΔΔCt method using 36B4 or GAPDH as housekeeping genes and DMSO treatment as a control. Liver mRNA expression was calculated relative to 18sRNA, which was used as an internal control due to its resistance to glucose-dependent regulation. The mRNA levels were quantified using the standard curve method of QuantStudio 6 Flex software (Applied Biosystems, Foster City, CA, USA), determining the crossing points of the individual samples using an algorithm that identifies the first turning point of the fluorescence curve. Amplification of the specific transcripts was confirmed by the melting curve profiles (cooling the sample to 68 °C and heating slowly to 95 °C while measuring the fluorescence) at the end of each PCR [53]. […]

The test system of the next experiment is obese Zucker rats. The following applies: free systemically administered tesa; ref [43]; cited from earlier work.
A further experiment in a line: Rectal body temperature. To be noted: db/db mice, 2.5 μM/kg/day, 8 days. In kind it is in vivo. The method, then:
(§1) All of the experiments were performed according to the animal ethical laws of the state Saxony, Germany, and were approved by the local animal ethics review board (Landesdirektion Sachsen, Leipzig, Germany). Female db/db mice 12–15 weeks of age were purchased from Taconic (Denmark) and housed in groups of 5 in temperature- and humidity-controlled facilities in a 12 h:12 h light–dark cycle and had free access to tap water and food (regular chow, Sniff, Soest, Germany). Three out of seven groups served as controls (N = 15, see Table 1). The 5 db/db mice were untreated and 10 db/db mice were vehicle treated either orally or intraperitoneally (i.p.). […]
(§2) All of the mice were monitored for 9 days during the treatment period. Body weight, food intake, and water uptake were recorded daily and body composition (lean body mass and whole body fat mass) was recorded at the beginning, middle, and end of the study in the conscious mice using an EchoMRI system (Echo Medical Systems, Houston, TX, USA). At the beginning and end of the treatment period, the HbA1c levels were determined from 5 μl of whole venous blood samples using an automated chemical analyzer at the Institute of Laboratory Medicine and Clinical Chemistry and beta-ketone using an automated glucose monitor (FreeStyle Precision H, Abbott GmbH, Ludwigshafen, Germany). […]

Another experiment can be described thus: Ketone bodies. Type of experiment: in vivo. The following applies: db/db mice, 2.5 μM/kg/day, 8 days; n = 5. On the procedure: as §1, §2
A further experiment relates to 3T3-L1 cells. Description: qRT-PCR of adipocyte-marker genes, 3T3-L1. Type of experiment: cell-based, murine. The following applies: qPCR, vs DMSO; n ≥ 3. The method, then: The 3T3-L1 or SGBS cells were seeded into 6-well plates and differentiated as previously described. Tesa or peptides were added to the differentiation medium at a concentration of 100 μM on day 2, followed by 12 h or 24 h incubation. On day 4, the cells were washed two times with PBS, harvested by trypsinization, and stored at −70 °C until RNA isolation was performed. […] N ≥ 3 independent experiments with two replicates were performed. For the cell culture experiments, the data were analyzed according to the 2^−ΔΔCt method using 36B4 or GAPDH as housekeeping genes and DMSO treatment as a control. Liver mRNA expression was calculated relative to 18sRNA, which was used as an internal control due to its resistance to glucose-dependent regulation. The mRNA levels were quantified using the standard curve method of QuantStudio 6 Flex software (Applied Biosystems, Foster City, CA, USA), determining the crossing points of the individual samples using an algorithm that identifies the first turning point of the fluorescence curve. Amplification of the specific transcripts was confirmed by the melting curve profiles (cooling the sample to 68 °C and heating slowly to 95 °C while measuring the fluorescence) at the end of each PCR [53].
(A, B) Cells were differentiated and stimulated according to the protocol depicted for 3T3-L1 (A) and for SGBS (B). […] Bars represent mean ± SEM from n = 3 independent experiments performed in quadruplicates. Measurements were normalized using DMSO (vehicle)-treated cells (set to 100%). Statistical significances refer to vehicle-treated cells. (E,F) Expression of adipocyte-enriched genes in 3T3-L1 (E) or SGBS (F) adipocytes analyzed by qPCR. Values represent mean ± SEM from n ≥ 3 independent experiments performed in duplicates. […] Statistical significances refer to DMSO-treated cells and were determined by one-way analysis of variance (ANOVA) followed by Dunnett's multiple comparison test, *≤0.05, **p ≤ 0.01, ***p ≤ 0.001.

As for `CCO[C@@H](Cc1ccc(OCCc2ccc(OS(C)(=O)=O)cc2)cc1)C(=O)O` [tesa, tesaglitazar], the “anti-diabetic effect in ob/ob mice” value in the experiment with ob/ob mice is “reduce hypertriglyceridemia, hyperinsulinemia, and hyperglycemia in ob/ob mice”. For the same compound, the “transcriptional activity in absence of PPARγ” value in the experiment on PPARγ (100 μM, HEK293 NPY1R without PPARγ transfection) is on record as “complete loss of transcriptional activity”. In addition, in the experiment on PPARγ (100 μM, HEK293 without NPY1R, with PPARγ), the “transcriptional activity in absence of NPY1R” value is “not influenced by NPY1R expression”. In addition, the “concentration-response curve / potency in reporter assay” value in the experiment with PPARγ (HEK293 NPY1R, PPARγ, RXRα, 24 h) was “demonstrated a saturation curve”. In addition, in the experiment on PPARγ (HEK293 stably expressing NPY1R, transfected with PPAR reporter, PPARγ, RXRα, 24 h treatment, n ≥ 3), the “relative transcriptional activity (luciferase)” value is reported as “Concentration-dependent luciferase activity was detected”. For the same compound, the “expression of PPARγ in the liver” value in the experiment with PPARγ mRNA in liver is on record as “significantly enhanced the expression of PPARγ in the liver”. In the experiment on obese Zucker rats, the “insulin sensitivity in obese Zucker rats” value was “restore insulin sensitivity in obese Zucker rats”. Besides, the “body temperature, in words” value in the experiment “Rectal body temperature” is given as “normalized”. Besides, the ketone bodies entry in the experiment “Ketone bodies” is recorded as “normalization of the plasma concentration”. For the same compound, in the experiment on 3T3-L1 cells, the “Cidec expression, 3T3-L1” value is listed as “enhanced”; the “Fabp4 expression, 3T3-L1” value is “enhanced”; the “adiponectin expression, 3T3-L1” value is on record as “upregulated”.
